Source: ChEMBL document CHEMBL3991601, “The target landscape of clinical kinase drugs” (Science, 2017)
pKd: −log10 of the molar value. Activity calls are given as the source filed them. Cut-off read from the data, not from the text of the source, for most assays here: actives have a measured Kd and inactives only a lower limit.

Assays:
[1] = target: T1, Glycogen phosphorylase, brain form (Homo sapiens, UniProt P11216)
T1 sequence (P11216 whole entry): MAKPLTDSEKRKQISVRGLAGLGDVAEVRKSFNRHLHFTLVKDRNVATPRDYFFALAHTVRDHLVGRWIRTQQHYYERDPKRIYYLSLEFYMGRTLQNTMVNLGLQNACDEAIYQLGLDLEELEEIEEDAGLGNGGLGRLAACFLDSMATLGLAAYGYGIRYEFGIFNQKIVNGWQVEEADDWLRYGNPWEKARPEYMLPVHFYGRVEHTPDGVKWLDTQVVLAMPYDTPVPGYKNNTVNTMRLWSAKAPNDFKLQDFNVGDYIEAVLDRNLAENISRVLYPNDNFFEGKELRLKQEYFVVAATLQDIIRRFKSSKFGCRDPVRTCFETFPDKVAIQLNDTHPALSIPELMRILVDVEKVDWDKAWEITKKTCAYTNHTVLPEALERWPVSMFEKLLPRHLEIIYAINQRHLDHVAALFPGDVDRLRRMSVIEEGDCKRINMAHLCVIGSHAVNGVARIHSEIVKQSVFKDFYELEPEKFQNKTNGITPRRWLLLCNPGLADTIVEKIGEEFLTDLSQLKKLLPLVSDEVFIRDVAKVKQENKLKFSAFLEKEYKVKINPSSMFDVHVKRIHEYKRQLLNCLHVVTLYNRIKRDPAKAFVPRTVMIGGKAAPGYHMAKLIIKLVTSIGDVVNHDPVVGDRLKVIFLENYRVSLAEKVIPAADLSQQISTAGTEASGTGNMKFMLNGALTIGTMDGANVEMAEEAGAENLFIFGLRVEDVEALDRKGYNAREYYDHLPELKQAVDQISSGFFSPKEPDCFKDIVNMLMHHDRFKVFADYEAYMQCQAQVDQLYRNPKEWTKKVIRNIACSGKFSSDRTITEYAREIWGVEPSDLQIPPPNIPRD

Midasin = Midasin (Homo sapiens, UniProt Q9NU22)
[2] = target: Fibroblast growth factor receptor 1 (Homo sapiens, UniProt P11362)
LIM domain kinase 2 = LIM domain kinase 2 (Homo sapiens, UniProt P53671)
[3] = target: Tyrosine-protein kinase FRK (Homo sapiens, UniProt P42685)
[4] = target: Cyclin-dependent kinase 12 (Homo sapiens, UniProt Q9NYV4)
Ephrin type-A receptor 2 = Ephrin type-A receptor 2 (Homo sapiens, UniProt P29317)
[5] = target: T2, Membrane-associated tyrosine- and threonine-specific cdc2-inhibitory kinase (Homo sapiens, UniProt Q99640)
T2 sequence (Q99640 whole entry): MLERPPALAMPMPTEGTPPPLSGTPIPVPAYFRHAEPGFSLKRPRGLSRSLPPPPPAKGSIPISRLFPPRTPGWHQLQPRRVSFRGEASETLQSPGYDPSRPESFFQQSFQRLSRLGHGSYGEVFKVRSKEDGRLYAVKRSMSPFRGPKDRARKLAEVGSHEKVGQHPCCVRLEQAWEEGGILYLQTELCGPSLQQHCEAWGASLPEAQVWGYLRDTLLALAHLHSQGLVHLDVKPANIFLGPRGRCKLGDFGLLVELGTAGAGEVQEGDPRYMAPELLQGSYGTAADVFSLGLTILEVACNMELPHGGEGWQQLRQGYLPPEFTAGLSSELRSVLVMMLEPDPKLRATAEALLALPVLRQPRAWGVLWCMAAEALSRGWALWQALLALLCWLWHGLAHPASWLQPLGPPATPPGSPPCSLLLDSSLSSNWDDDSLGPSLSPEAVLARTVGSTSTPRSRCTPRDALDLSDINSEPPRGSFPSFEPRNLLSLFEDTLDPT

[6] = target: T3, Peroxisomal acyl-coenzyme A oxidase 3 (Homo sapiens, UniProt O15254)
T3 sequence (O15254 whole entry): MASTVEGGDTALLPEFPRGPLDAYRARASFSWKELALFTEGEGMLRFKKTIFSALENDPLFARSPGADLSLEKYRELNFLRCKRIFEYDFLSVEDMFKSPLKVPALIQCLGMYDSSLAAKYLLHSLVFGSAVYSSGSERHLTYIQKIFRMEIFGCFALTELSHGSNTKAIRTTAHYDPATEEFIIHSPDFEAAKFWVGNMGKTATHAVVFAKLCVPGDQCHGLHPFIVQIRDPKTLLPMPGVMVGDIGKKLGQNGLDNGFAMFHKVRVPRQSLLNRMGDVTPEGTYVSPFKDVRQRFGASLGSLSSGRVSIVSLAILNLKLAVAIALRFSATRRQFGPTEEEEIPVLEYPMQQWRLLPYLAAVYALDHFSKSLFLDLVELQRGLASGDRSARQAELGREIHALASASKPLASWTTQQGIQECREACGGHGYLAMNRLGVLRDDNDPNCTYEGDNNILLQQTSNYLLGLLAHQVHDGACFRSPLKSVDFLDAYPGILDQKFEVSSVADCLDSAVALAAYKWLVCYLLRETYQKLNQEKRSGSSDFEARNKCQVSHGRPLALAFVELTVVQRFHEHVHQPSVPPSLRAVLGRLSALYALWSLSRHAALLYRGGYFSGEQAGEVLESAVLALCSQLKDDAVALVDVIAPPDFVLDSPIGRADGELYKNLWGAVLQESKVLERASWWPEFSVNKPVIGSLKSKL

[7] = target: Mitogen-activated protein kinase kinase kinase kinase 1 (Homo sapiens, UniProt Q92918)
[8] = target: Non-receptor tyrosine-protein kinase TYK2 (Homo sapiens, UniProt P29597)
[9] = target: Chromodomain-helicase-DNA-binding protein 4 (Homo sapiens, UniProt Q14839)
[10] = target: Serine/threonine-protein kinase 26 (Homo sapiens, UniProt Q9P289)
Note: in the data inactive means no Kd found up to 30 µM.

Sequence of Mitogen-activated protein kinase kinase kinase kinase 1 (Q92918 whole entry): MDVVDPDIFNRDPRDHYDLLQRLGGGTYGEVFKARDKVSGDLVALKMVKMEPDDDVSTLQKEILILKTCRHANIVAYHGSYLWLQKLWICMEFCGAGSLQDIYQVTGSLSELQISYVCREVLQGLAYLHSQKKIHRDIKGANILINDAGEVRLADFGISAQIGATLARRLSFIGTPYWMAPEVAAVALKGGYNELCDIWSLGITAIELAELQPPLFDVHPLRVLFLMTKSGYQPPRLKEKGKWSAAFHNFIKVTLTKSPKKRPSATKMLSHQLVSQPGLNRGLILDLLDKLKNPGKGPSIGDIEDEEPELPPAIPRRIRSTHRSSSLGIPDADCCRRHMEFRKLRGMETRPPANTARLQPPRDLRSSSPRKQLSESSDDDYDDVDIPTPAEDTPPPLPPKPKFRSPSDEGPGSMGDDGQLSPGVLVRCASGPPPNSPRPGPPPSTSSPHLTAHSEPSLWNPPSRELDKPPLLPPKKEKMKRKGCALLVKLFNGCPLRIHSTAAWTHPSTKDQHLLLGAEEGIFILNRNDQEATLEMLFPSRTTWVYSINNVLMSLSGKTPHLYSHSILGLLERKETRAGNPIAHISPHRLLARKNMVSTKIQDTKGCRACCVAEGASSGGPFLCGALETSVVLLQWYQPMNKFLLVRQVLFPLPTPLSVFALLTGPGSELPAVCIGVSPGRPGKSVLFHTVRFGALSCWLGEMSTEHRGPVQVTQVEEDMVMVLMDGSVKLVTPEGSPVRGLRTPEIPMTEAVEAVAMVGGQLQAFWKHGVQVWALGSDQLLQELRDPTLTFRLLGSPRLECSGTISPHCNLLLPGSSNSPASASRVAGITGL
Sequence of Fibroblast growth factor receptor 1 (P11362 whole entry, the tested form may be a part): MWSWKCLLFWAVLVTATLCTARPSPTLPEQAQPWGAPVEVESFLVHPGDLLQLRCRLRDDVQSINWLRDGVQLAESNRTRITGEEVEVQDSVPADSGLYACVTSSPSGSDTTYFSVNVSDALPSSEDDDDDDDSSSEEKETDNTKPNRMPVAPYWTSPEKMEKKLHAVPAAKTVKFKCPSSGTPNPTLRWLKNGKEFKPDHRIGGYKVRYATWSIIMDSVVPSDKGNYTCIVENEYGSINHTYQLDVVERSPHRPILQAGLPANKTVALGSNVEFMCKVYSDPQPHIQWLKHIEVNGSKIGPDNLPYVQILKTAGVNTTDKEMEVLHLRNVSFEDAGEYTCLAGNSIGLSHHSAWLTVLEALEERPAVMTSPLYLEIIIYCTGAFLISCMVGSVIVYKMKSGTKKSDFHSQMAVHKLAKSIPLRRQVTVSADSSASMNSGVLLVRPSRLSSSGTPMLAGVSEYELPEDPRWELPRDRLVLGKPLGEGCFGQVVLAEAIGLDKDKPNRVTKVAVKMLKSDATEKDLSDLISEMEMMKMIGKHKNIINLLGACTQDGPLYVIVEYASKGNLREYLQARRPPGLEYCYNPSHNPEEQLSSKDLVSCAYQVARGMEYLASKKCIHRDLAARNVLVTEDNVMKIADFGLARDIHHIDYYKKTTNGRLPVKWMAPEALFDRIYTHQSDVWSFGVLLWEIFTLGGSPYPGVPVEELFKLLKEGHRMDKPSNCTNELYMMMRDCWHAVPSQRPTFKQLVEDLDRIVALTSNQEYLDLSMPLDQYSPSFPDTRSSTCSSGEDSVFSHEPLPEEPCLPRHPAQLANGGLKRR
Sequence of LIM domain kinase 2 (P53671 whole entry, the tested form may be a part): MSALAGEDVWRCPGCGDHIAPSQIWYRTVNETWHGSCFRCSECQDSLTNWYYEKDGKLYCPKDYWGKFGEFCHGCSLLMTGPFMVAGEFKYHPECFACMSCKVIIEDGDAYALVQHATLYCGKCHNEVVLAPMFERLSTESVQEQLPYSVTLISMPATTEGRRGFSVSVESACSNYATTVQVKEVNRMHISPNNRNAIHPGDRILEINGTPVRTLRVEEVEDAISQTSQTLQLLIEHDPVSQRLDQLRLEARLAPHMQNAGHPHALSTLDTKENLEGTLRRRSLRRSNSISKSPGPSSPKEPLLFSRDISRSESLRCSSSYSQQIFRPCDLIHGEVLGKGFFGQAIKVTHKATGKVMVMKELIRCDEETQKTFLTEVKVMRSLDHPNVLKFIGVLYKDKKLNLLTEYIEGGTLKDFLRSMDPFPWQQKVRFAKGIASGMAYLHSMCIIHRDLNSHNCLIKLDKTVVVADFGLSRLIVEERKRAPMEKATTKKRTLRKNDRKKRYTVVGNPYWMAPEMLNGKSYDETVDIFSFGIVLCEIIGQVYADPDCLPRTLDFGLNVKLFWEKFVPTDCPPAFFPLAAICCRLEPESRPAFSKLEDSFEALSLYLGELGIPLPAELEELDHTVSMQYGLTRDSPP
Sequence of Cyclin-dependent kinase 12 (Q9NYV4 whole entry): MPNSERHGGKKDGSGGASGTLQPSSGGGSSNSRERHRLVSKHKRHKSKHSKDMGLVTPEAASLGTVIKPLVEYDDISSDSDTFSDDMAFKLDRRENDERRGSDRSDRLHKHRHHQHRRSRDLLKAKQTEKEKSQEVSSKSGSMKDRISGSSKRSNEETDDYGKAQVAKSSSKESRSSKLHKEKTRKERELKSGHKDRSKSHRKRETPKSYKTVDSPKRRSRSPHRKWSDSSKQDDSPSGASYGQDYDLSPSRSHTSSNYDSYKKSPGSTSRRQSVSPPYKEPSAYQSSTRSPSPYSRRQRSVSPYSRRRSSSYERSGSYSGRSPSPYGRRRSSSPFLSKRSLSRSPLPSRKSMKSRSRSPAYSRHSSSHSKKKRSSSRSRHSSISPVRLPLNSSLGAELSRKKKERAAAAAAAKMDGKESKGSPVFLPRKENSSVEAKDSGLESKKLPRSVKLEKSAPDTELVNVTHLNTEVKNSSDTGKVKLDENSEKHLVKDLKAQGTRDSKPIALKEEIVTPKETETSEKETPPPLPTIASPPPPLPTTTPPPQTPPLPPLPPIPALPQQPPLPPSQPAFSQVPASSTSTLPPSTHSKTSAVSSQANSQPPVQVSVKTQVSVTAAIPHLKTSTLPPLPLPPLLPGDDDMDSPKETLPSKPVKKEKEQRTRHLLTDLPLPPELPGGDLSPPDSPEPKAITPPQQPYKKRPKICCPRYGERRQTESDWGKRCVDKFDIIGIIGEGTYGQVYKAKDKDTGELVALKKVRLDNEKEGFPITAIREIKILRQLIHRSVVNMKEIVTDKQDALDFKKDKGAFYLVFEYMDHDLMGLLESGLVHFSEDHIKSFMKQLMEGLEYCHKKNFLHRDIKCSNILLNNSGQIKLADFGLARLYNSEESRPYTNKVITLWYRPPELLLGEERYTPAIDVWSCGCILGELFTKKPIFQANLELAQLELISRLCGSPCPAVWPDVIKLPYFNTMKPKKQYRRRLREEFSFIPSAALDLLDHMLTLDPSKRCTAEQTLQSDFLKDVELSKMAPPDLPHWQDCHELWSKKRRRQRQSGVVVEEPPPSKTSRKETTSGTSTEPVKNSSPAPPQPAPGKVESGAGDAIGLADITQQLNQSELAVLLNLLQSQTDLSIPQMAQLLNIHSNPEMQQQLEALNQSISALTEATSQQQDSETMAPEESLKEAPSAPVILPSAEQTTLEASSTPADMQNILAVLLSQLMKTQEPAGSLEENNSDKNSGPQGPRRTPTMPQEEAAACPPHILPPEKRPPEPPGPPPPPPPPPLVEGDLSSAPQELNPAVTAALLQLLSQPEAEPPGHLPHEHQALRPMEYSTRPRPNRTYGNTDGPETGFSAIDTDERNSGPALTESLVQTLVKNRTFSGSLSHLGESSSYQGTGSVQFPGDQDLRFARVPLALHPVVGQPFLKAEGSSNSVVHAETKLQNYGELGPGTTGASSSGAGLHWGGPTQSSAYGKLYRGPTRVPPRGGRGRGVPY
Sequence of Non-receptor tyrosine-protein kinase TYK2 (P29597 whole entry): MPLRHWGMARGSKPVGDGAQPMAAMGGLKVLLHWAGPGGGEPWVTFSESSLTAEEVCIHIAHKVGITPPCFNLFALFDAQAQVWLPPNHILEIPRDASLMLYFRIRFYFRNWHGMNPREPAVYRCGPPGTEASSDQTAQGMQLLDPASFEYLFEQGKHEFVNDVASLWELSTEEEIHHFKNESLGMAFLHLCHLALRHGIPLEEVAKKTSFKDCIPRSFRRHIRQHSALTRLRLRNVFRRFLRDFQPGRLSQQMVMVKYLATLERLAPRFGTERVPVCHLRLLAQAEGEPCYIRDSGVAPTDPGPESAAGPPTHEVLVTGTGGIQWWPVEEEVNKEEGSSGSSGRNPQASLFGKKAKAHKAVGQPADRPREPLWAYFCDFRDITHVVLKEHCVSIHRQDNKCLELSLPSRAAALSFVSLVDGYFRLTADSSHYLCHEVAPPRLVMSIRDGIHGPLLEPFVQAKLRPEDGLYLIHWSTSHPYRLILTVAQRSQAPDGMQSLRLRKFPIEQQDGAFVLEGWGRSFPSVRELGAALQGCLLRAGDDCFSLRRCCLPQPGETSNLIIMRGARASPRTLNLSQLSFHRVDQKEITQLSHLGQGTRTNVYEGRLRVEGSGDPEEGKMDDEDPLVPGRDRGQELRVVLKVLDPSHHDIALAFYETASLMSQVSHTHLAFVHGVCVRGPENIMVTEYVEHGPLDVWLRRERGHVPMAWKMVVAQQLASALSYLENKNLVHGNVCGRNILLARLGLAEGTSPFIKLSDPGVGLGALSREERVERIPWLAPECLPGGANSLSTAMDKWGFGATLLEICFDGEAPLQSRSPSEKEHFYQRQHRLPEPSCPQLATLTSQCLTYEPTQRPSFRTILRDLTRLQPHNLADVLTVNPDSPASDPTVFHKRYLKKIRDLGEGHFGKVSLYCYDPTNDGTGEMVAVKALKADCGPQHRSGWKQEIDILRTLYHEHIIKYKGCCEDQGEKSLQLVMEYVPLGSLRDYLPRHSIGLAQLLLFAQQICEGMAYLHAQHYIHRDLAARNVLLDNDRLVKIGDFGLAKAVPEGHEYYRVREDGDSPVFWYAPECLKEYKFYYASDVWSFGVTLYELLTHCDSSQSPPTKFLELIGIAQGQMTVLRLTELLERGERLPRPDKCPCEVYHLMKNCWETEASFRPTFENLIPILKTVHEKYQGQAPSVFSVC

Row | Structure (SMILES) | Kd [1] | Kd (Midasin) | Kd [2] | Kd (LIM domain kinase 2) | Kd [3] | Kd [4] | Kd (Ephrin type-A receptor 2) | Kd [5] | Kd [6] | Kd [7] | Kd [8] | Kd [9] | Kd [10] | pKd [10]
1 | C#Cc1cccc(Nc2ncnc3cc4c(cc23)OCCOCCOCCO4)c1 [ICOTINIB] | > 30 µM (inactive) | > 30 µM (inactive) | > 30 µM (inactive) | > 30 µM (inactive) | > 30 µM (inactive) | > 30 µM (inactive) | > 30 µM (inactive) | > 30 µM (inactive) | > 30 µM (inactive) | > 30 µM (inactive) | > 30 µM (inactive) | > 30 µM (inactive) | > 30 µM (inactive) | –
2 | Cc1ccc(C(=O)Nc2ccc(Oc3cc4cnn(C)c4cc3-c3cn[nH]c3)c(F)c2)c(=O)n1-c1ccc(F)cc1 [MERESTINIB] | > 30 µM (inactive) | > 30 µM (inactive) | > 30 µM (inactive) | > 30 µM (inactive) | > 30 µM (inactive) | > 30 µM (inactive) | > 30 µM (inactive) | > 30 µM (inactive) | > 30 µM (inactive) | > 30 µM (inactive) | > 30 µM (inactive) | > 30 µM (inactive) | > 30 µM (inactive) | –
3 | C=CC(=O)Nc1cc(Nc2nccc(-c3cn(C)c4ccccc34)n2)c(OC)cc1N(C)CCN(C)C [OSIMERTINIB] | > 30 µM (inactive) | > 30 µM (inactive) | > 30 µM (inactive) | > 30 µM (inactive) | > 30 µM (inactive) | > 30 µM (inactive) | > 30 µM (inactive) | > 30 µM (inactive) | > 30 µM (inactive) | > 30 µM (inactive) | > 30 µM (inactive) | > 30 µM (inactive) | > 30 µM (inactive) | –
4 | FC(F)(F)c1ccc(CNc2ccc(Cc3c[nH]c4ncc(Cl)cc34)cn2)cn1 [PEXIDARTINIB] | > 30 µM (inactive) | > 30 µM (inactive) | > 30 µM (inactive) | > 30 µM (inactive) | > 30 µM (inactive) | > 30 µM (inactive) | > 30 µM (inactive) | > 30 µM (inactive) | > 30 µM (inactive) | > 30 µM (inactive) | > 30 µM (inactive) | > 30 µM (inactive) | > 30 µM (inactive) | –
5 | CC(C)CC(=O)Nc1[nH]nc2c1CN(C(=O)C1CCN(C)CC1)C2(C)C [PHA-793887] | > 30 µM (inactive) | > 30 µM (inactive) | > 30 µM (inactive) | > 30 µM (inactive) | > 30 µM (inactive) | 3.66 µM (active) | > 30 µM (inactive) | > 30 µM (inactive) | > 30 µM (inactive) | > 30 µM (inactive) | > 30 µM (inactive) | > 30 µM (inactive) | – | 6.76
6 | O=C(NC[C@H](O)CO)c1ccncc1Nc1ccc(I)cc1F [PIMASERTIB] | > 30 µM (inactive) | > 30 µM (inactive) | > 30 µM (inactive) | > 30 µM (inactive) | > 30 µM (inactive) | > 30 µM (inactive) | > 30 µM (inactive) | > 30 µM (inactive) | > 30 µM (inactive) | > 30 µM (inactive) | > 30 µM (inactive) | > 30 µM (inactive) | > 30 µM (inactive) | –
7 | COCCN1CCN(Cc2ccc(-c3n[nH]c4c3C(=O)c3c(NC(=O)NN5CCOCC5)cccc3-4)cc2)CC1 [RGB-286638] | > 30 µM (inactive) | > 30 µM (inactive) | > 30 µM (inactive) | > 30 µM (inactive) | > 30 µM (inactive) | 0.947 µM (active) | > 30 µM (inactive) | > 30 µM (inactive) | > 30 µM (inactive) | > 30 µM (inactive) | > 30 µM (inactive) | > 30 µM (inactive) | 1.05 µM (active) | –
8 | C=CC(=O)Nc1cccc(Nc2nc(Nc3ccc(N4CCN(C(C)=O)CC4)cc3OC)ncc2C(F)(F)F)c1 [ROCILETINIB] | > 30 µM (inactive) | > 30 µM (inactive) | > 30 µM (inactive) | > 30 µM (inactive) | > 30 µM (inactive) | > 30 µM (inactive) | > 30 µM (inactive) | > 30 µM (inactive) | > 30 µM (inactive) | > 30 µM (inactive) | > 30 µM (inactive) | > 30 µM (inactive) | > 30 µM (inactive) | –
9 | O=C(O)c1ccc2c(c1)nc(Nc1cccc(Cl)c1)c1ccncc12 [SILMITASERTIB] | > 30 µM (inactive) | > 30 µM (inactive) | > 30 µM (inactive) | > 30 µM (inactive) | > 30 µM (inactive) | > 30 µM (inactive) | > 30 µM (inactive) | > 30 µM (inactive) | > 30 µM (inactive) | > 30 µM (inactive) | 2.38 µM (active) | > 30 µM (inactive) | – | 5.77

The next lines start with results.

Row | Kd [1] | Kd (Midasin) | Kd [2] | Kd (LIM domain kinase 2) | Kd [3] | Kd [4] | Kd (Ephrin type-A receptor 2) | Kd [5] | Kd [6] | Kd [7] | Kd [8] | Kd [9] | Kd [10] | Structure (SMILES) | pKd [10]
10 | > 30 µM (inactive) | > 30 µM (inactive) | > 30 µM (inactive) | > 30 µM (inactive) | > 30 µM (inactive) | > 30 µM (inactive) | > 30 µM (inactive) | > 30 µM (inactive) | > 30 µM (inactive) | > 30 µM (inactive) | > 30 µM (inactive) | > 30 µM (inactive) | > 30 µM (inactive) | COc1cc2ncnc3c2cc1OCCCCCN(C)Cc1ccc(Br)cc1N3 [JNJ-26483327] | –
11 | > 30 µM (inactive) | > 30 µM (inactive) | > 30 µM (inactive) | > 30 µM (inactive) | > 30 µM (inactive) | > 30 µM (inactive) | > 30 µM (inactive) | > 30 µM (inactive) | > 30 µM (inactive) | > 30 µM (inactive) | > 30 µM (inactive) | > 30 µM (inactive) | > 30 µM (inactive) | COc1cccc2cc(-c3nc([C@H]4CC[C@H](C(=O)O)CC4)n4ncnc(N)c34)[nH]c12 [OSI-027] | –
12 | > 30 µM (inactive) | > 30 µM (inactive) | > 30 µM (inactive) | > 30 µM (inactive) | > 30 µM (inactive) | > 30 µM (inactive) | > 30 µM (inactive) | > 30 µM (inactive) | > 30 µM (inactive) | > 30 µM (inactive) | > 30 µM (inactive) | > 30 µM (inactive) | > 30 µM (inactive) | O=C(Nc1ccc(OC(F)(F)F)cc1)c1sccc1NCc1ccnc2ccccc12 [OSI-930] | –
